{"source": "patent US20090203720A1", "about": "“Methods for inhibiting cell growth” (priority 2003, published 2009)", "key": {"[1]": {"test_system": "CK1 isoforms", "settings": "literature (refs 25,26); read-out: reported IC50 for inhibition of CK1 isoforms; cited from earlier work"}, "[2]": {"target": "CK1α (Homo sapiens, UniProt P48729)", "sequence (P48729 whole entry, one chain of several)": "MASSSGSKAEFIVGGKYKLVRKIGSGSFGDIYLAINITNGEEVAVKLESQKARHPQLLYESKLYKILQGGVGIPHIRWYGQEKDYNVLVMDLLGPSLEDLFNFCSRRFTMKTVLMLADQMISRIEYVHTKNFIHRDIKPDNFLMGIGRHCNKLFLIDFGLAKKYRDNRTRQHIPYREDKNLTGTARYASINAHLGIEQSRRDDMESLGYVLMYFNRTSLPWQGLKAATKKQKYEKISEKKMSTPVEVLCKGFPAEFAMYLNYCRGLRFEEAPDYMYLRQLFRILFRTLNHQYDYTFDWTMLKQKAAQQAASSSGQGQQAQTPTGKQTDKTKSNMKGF", "experiment": "In vitro kinase assay of RXR immunoprecipitated complexes with inhibitor in the assay mixture", "format": "biochemical", "settings": "RXR immunoprecipitated complexes from Compound 1-treated HEK293 Flag-RXR cells; read-out: IC50 for inhibition of phosphorylation of RXR and p160", "protocol": "To determine that the kinase activity which phosphorylates RXR and p160 in the RXR complex is only contributed by CK1α, in vitro kinase assays of the RXR immunoprecipitated complexes in the presence of various concentrations of a known CK1 specific inhibitor CK1-7 (25) was performed.\nThe immunoprecipitated complexes were re-suspended in 15 μl of kinase assay buffer (30 mM Tris-HCl, pH 7.4 and 10 mM MgCl2). The kinase reactions were initiated by adding 2 μl of 50 μM [γ-32P]ATP (10 μCi) into the immunocomplexes, followed by incubation at 30° C. with shaking for 20 min, and terminated by adding 6 μl of 4× SDS sample loading buffer. After heating at 100° C. for 5 min, the reaction mixtures were resolved by 4-12% SDS-PAGE. The incorporation of ^32P into RXR and other proteins was determined by subjecting the gel to autoradiography."}, "[3]": {"test_system": "Jurkat-pSupCK1α cells", "experiment": "Apoptotic populations in CK1α-suppressed Jurkat cells", "format": "cell-based", "settings": "3 days", "procedure": "FIGS. 4J, 4K, 4L and 4M show effects of depletion of CK1α on Jurkat cells: A cell line (Jurkat-pSupCK1α) in which CK1α expression is suppressed by stably expressing SiRNA CK1α was generated from Jurkat cells (left panel). The effect of COMPOUND-1 (4 days) on growth inhibition of Jurkat and Jurkat-pSupCK1α cells was measured (the second panel).\nBased on this observation, CK1α negative regulation RXR-mediated apoptosis. HEK293RXR and Jurkat cells were used to deplete the expression of endogenous CK1α by stably transfecting CK1α RNAi expression vector. Although the depletion of endogenous CK1α in both cell lines was not very efficient, (with a 30% to 50% decrease for the expression of CK1α achieved in both cell lines) after decreasing the CK1α expression, both cell lines were becoming very sensitive to the treatment of RXR agonist in term of the cell growth inhibition (FIGS. 4J, 4K, 4L and 4M). Apoptotic cell populations of Jurkat-pSupCK1 (containing the CK1α RNAi construct) is increased compared to the parental cell lines in the presence of RXR agonist (FIGS. 4J, 4K, 4L and 4M)."}, "[4]": {"test_system": "RXRα homodimers", "experiment": "Transactivation assay, pRXRE-Luc (DR-1) reporter in CV-1 cells", "format": "cell-based", "settings": "10^-8 M, 16 hr, CV1 cells", "procedure": "(§1) FIGS. 4A, 4B and 4C display evidence of transactivation by RXRα homodimers or RXRα:RARα heterodimers is not modulated by CK1α. For the left panel, CV1 cells were cotransfected with pFlag-RXRα, reporter plasmid pRXRE-Luc, β-galactosidase expression vector, plus increasing amount of CK1α expression vector (lane 1 and 2: 0 ng; lane 3: 50 ng; lane 4: 100 ng; lane 5: 200 ng), or sense strand CK1α or double-strand RNAi CK1α, or sense strand CK1ε or double-strand RNAi CK1ε. […] Data are presented as the activity of luciferase normalized to that of β-galactosidase activity, which served as an internal control for transfection efficiency and are the mean of three independent experiments with triplicates for each. For the middle panel, CV1 cells were cotransfected with pFlag-RXRα, pRAR-V5, reporter plasmid pRARE-Luc, β-galactosidase expression vector, plus sense strand CK1α or double-strand RNAi CK1α. […] Data are presented as the activity of luciferase normalized to that of β-galactosidase activity and are the mean of three independent experiments with triplicates for each. CK1α could efficaciously be depleted in CV-1 cells by small double-strand RNAi, judged by immunoblotting the total cell lysates with anti-CK1α antibodies (left panel).\nCK1α is the smallest in the CK1 family. […] The role of CK1α in transactivation by RXR homodimers and RXR:RAR heterodimers was determined. […]"}, "[5]": {"target": "T1, RXRα (Homo sapiens, UniProt P19793)", "T1 construct": "expressed in transfected cells; host or cells: HEK293", "T1 sequence (P19793 1-462)": "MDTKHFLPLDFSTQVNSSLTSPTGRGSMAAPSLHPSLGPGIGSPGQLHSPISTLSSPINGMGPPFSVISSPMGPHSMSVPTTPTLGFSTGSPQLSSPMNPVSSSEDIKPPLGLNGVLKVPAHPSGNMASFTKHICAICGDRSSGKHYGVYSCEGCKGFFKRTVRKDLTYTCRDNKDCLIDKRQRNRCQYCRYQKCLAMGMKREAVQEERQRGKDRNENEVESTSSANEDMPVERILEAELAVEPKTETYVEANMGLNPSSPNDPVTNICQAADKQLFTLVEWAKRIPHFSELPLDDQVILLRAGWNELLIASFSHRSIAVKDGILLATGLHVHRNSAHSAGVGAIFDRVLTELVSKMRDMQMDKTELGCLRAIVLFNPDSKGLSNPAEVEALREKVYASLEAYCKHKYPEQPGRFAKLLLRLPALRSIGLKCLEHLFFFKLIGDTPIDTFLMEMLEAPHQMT", "experiment": "Ligand-dependent recruitment of protein kinase to Flag-RXRα immunocomplexes (immunoprecipitation, in vitro kinase assay)", "format": "cell-based", "settings": "for recruitment of protein kinase to RXR immunocomplexes: transfected HEK293 cells, ligands at 10^-6 M, 15 minutes", "source_text": "Total cell lysates were immunoprecipitated with anti-Flag antibody (M2). An aliquot of the immunocomplexes were used for the in vitro kinase reaction with [γ-^32P]ATP and separated on SDS-PAGE. The phosphorylated proteins were detected by autoradiography (right panel). To show the presence of equal amounts of RXR in the immunoprecipitates, additional aliquots of the immunocomplexes were subjected to immunoblotting with a polyclonal antibody (D20) against RXR (left panel).\nIn vitro kinase reaction assay was performed."}, "[6]": {"test_system": "DT40RXR cells", "experiment": "Activation of caspases 3 and 9", "format": "cell-based", "procedure": "(§2) Caspase activities were measured following manufacturer's protocols and presented as fold increase in relative to control.\n(§3) The sensitivity of the wild-type cells and the cells stably expressing RXR to RXR agonist treatment."}, "[7]": {"test_system": "JurkatRXR cells", "experiment": "Apoptosis by FACS DNA content analysis (propidium iodide)", "format": "cell-based", "settings": "10 nM, 3 days, 11.9% without agonist", "procedure": "(§4) Cells having a DNA content less than the G1 population were considered as apoptotic cells.\n(§5) For immunoblotting, proteins from cell lysates or immunoprecipitates were subjected to separation on SDS-PAGE (38). The resolved polypeptides were transferred to PVDF membrane and analyzed by immunoblotting (39). The targeted proteins were detected using the enhanced chemiluminescence immunodetection system (Amersham). DNA content analysis by FACS was performed on FACScan™ (Becton Dickinson) as described (40)."}, "[8]": {"test_system": "DT40 cells", "experiment": "Apoptosis by FACS DNA content analysis (propidium iodide)", "format": "cell-based", "settings": "10 nM, 3 days, cells with DNA content less than G1, 3.5% without agonist", "procedure": "as §4, §5"}, "[9]": {"test_system": "DT40RXR cells", "experiment": "Apoptosis by FACS DNA content analysis (propidium iodide)", "format": "cell-based", "settings": "10 nM, 3 days, 10.4% without agonist", "procedure": "as §4, §5"}, "[10]": {"test_system": "Jurkat cells", "experiment": "Apoptosis by FACS DNA content analysis (propidium iodide)", "format": "cell-based", "settings": "10 nM, 3 days, 2.8% without agonist", "procedure": "as §4, §5"}, "[11]": {"test_system": "DT40RXR and JurkatRXR cells", "experiment": "Cell death/growth inhibition in RXR-overexpressing versus parental cells", "format": "cell-based", "settings": "JurkatRXR vs parental cells, 3 days", "procedure": "FIGS. 1A, 1B and 1C show RXR and RXR agonist dependent cell growth inhibition: DT40, DT40RXR, Jurkat, and JurkatRXR cells (5×10^3 cells/ml) were treated with various doses of AGN19424 for 3 days (the left two panels). Viable cells were counted and were presented as percentage of control (cells without treatment).\nOverexpressing activated RXR may mediate growth inhibitory effects in some human carcinoma cells (17). To confirm that the effects of RXR agonists were mediated by RXR proteins and explore the molecular mechanism, two RXR stably expression cell lines were generated using B lymphoma cell (DT40) and T lymphoma cells (Jurkat cells), which are named DT40RXR and JurkatRXR (FIG. 1A, left panel).\nas §3"}, "[12]": {"test_system": "DT40 cells", "experiment": "Activation of caspases 3 and 9", "format": "cell-based", "procedure": "as §2, §3"}, "[13]": {"test_system": "RXR-associated kinase", "experiment": "Effect of signalling pathway modulators on RXR-associated kinase activity in RXR transfected cells", "format": "cell-based", "settings": "cell treatment: anisomycin 50 μM; pathway inhibitors 1 hour; insulin 30 minutes", "procedure": "(§6) The cells were stimulated with anisomycin (50 μM) and COMPOUND-1 (10^−7 M) as indicated, then the cell lysates were subjected to immunoprecipitation and in vitro kinase assay (bottom panel).\n(§7) Activation of stress pathways lead to the phosphorylation of RXR (22,23), and MKK4/SEK1 is reported to associate with and phosphorylate RXR directly (23). […] Anisomycin treatment led to phosphorylation of RXR resulting in an up-shift of the RXR band on SDS-PAGE (22).\nTo further study the effect of signaling transduction pathways on the RXR-associated kinase activity, RXR transfected cells were incubated with inhibitors of the PI3 kinase (wortmannin), p42/44 MAPK (PD98059), or p38 MAPK pathways (SB202190 or SB203580) for 1 hour or stimulated with insulin or 10% serum for 30 minutes. RXR complexes were then isolated and the in vitro kinase assays were performed in the usual manner."}, "[14]": {"test_system": "RXR:RAR heterodimers", "experiment": "Transactivation assay, pRARE-Luc reporter in CV-1 cells", "format": "cell-based", "settings": "CV-1 cells cotransfected with RXRα and RARα; 10^-7 M, 16 hr", "procedure": "as §1\nSimilar transfection experiments were also performed using pRARE-Luc as reporter with cotransfection of RXRα and RARα. […]"}, "[15]": {"test_system": "MKK4", "experiment": "MKK4 phosphorylation (stress pathway activation) by immunoblotting", "format": "cell-based", "settings": "HEK293 transfected with RXR or RXR plus MKK4", "procedure": "as §6, §7, §5"}}, "data": [{"compound": "NCCNS(=O)(=O)c1ccc(Cl)c2ccncc12", "note": "[CK1-7, N-(2-amino-ethyl)-5-chloroisoquinoline-8-sulfonamide]", "values": [{"measurement": "IC50", "setting": "[1]", "value": "10 to 100", "unit": "µM"}, {"measurement": "IC50", "setting": "[2]", "value": "~30", "unit": "µM"}]}, {"compound": "CC(/C=C/C1CC1(C)c1ccc2c(c1)C(C)(C)CCC2(C)C)=C\\C(=O)O", "note": "(stereo not shown) [Compound 1]", "values": [{"measurement": "apoptotic populations", "setting": "[3]", "value": "dramatic increase of apoptotic populations"}, {"measurement": "DR-1 luciferase expression", "setting": "[4]", "value": "greatly stimulated"}, {"measurement": "kinase activity in Flag-RXR immunoprecipitated complex when ligand added only to the in vitro kinase reaction", "setting": "[5]; immunoprecipitation in absence of Compound 1, added later to kinase reaction mixture", "value": "could not be detected"}, {"measurement": "recruitment of protein kinase to RXR immunocomplexes", "setting": "[5]", "value": "contained the kinase that could phosphorylate RXR and the 160 kDa protein"}, {"measurement": "activation of caspases 3 and 9", "setting": "[6]", "value": "activated"}, {"measurement": "apoptotic cells", "setting": "[7]", "value": 36.4, "unit": "%"}, {"measurement": "apoptotic cells", "setting": "[8]", "value": 4.5, "unit": "%"}, {"measurement": "apoptotic cells", "setting": "[9]", "value": 57.3, "unit": "%"}, {"measurement": "apoptotic cells", "setting": "[10]", "value": 3.4, "unit": "%"}, {"measurement": "efficacy in cell death/growth inhibition on overexpression of RXR", "setting": "[11]", "value": "dramatically increase the efficacy"}]}, {"compound": "OO", "note": "[Compound H2O2, hydrogen peroxide, reference compound]", "values": [{"measurement": "activation of caspases 3 and 9", "setting": "[12]", "value": "could activate caspases 3 and 9"}, {"measurement": "activation of caspases 3 and 9", "setting": "[6]", "value": "could activate caspases 3 and 9"}]}, {"compound": "COc1cccc(-c2cc(=O)c3ccccc3o2)c1N", "note": "[PD98059]", "values": [{"measurement": "effect on kinase activities in the RXR immunocomplexes", "setting": "[13]", "value": "not influenced to a significant degree"}]}, {"compound": "Oc1ccc(-c2nc(-c3ccncc3)c(-c3ccc(F)cc3)[nH]2)cc1", "note": "[SB202190]", "values": [{"measurement": "effect on kinase activities in the RXR immunocomplexes", "setting": "[13]", "value": "not influenced to a significant degree"}]}, {"compound": "C[S+]([O-])c1ccc(-c2nc(-c3ccncc3)c(-c3ccc(F)cc3)[nH]2)cc1", "note": "(stereo not shown) [SB203580]", "values": [{"measurement": "effect on kinase activities in the RXR immunocomplexes", "setting": "[13]", "value": "not influenced to a significant degree"}]}, {"compound": "C/C(=C\\c1ccc(C(=O)O)cc1)c1ccc2c(c1)C(C)(C)CCC2(C)C", "note": "[TTNPB, reference compound]", "values": [{"measurement": "activation of RXR:RAR heterodimers (pRARE-Luc)", "setting": "[14]", "value": "activated"}, {"measurement": "recruitment of protein kinase to RXR immunocomplexes", "setting": "[5]", "value": "did not recruit the protein kinase"}]}, {"compound": "COc1ccc(C[C@H]2NC[C@H](O)[C@H]2OC(C)=O)cc1", "note": "[anisomycin]", "values": [{"measurement": "effect on kinase activities in the RXR immunocomplexes", "setting": "[13]", "value": "not affected by anisomycin treatment"}, {"measurement": "phosphorylation of MKK4", "setting": "[15]", "value": "increased phosphorylation of both endogenous and overexpressed MKK4"}]}, {"compound": "insulin: insulin used to stimulate RXR transfected cells for 30 minutes", "values": [{"measurement": "effect on kinase activities in the RXR immunocomplexes", "setting": "[13]", "value": "not influenced to a significant degree"}]}]}
